Results published in US20250179047A1, “5-[7-(3,4-DIHYDRO-1H-ISOQUINOLINE-2-CARBONYL)-1,2,3,4 TETRAHYDROISOQUINOLIN-6-YL]-1H-PYRROLE-3-CARBOXAMIDE DERIVATIVES, PHARMACEUTICAL COMPOSITIONS CONTAINING THEM AND THEIR USES AS PRO-APOPTOTIC AGENTS” (LES LABORATOIRES SERVIER, priority 2022, published 2025).

Legend:
KMS-12-PE Bcl-2 WT = experiment: In vitro cytotoxicity CellTiter-Glo 48 h, KMS-12-PE Bcl-2 WT; format: cell-based; conditions: C50 = concentration needed to reach 50% of the cellular viability
Outline: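 KMS-12-PE myeloma cells were lentivirally transduced with wild-type or G101V-mutant Bcl-2 and sorted by TagRFP. They were exposed to compounds as 11-point dose responses for 48 h at 37 °C, 5% CO2. Viability was read by CellTiter-Glo ATP luminescence, and C50 was the concentration giving 50% viability.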

BCL2 G101V [1] = target: BCL2 G101V (Homo sapiens, UniProt P10415, G101V); experiment: TR-FRET competitive binding assay, BCL2 G101V; conditions: BCL2 G101V; Ki determined from IC50; read-out: TR_FRET EKI_Bcl2 G101V
Outline: (§1)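 Ki derived from IC50 (11-point dilution, 520/495 nm emission ratio) for displacing a fluorescein-labelled PUMA peptide (2 or 20 nM). Target was 0.5 nM E. coli-expressed Halo-tagged BCL2 (1-207) or BCLXL (2-196), terbium-labelled on Halo. Incubation 2 h at 23°C in pH 7.5 Hepes with 150 mM NaCl and 5% DMSO.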

BCL2 G101V [2] = experiment: TR-FRET competitive binding assay, BCL2 G101V; design: species or system human; conditions: ratio Ki BCL2 G101V / Ki BCL2 WT
Outline: as §1

KMS-12-PE Bcl-2 G101V = experiment: In vitro cytotoxicity CellTiter-Glo 48 h, KMS-12-PE Bcl-2 G101V; format: cell-based; conditions: for Ratio (G101V/WT): C50 KMS-12-PE Bcl-2 G101V over C50 KMS-12-PE Bcl-2 WT; for IC50: 48 h, CellTiter-Glo, C50 = concentration needed to reach 50% of the cellular viability
Protocol: KMS-12-PE (ACC 606) were purchased from the Leibniz-Institute DSMZ (Braunschweig, Germany) and were grown at 37° C. in a humidified atmosphere with […] in media recommended by the suppliers. Lentiviral particles containing Bcl-2 wild type (also named “Bcl2 WT”) and Bcl-2 mutated on G101V (also named “Bcl2 G101V”) were cloned into pcLV-CMV-DEST-IRES-TagRFP. Lentiviral particles (1×106) were mixed with Polybrene at 8 µg/ml and transduced by spinoculation for 1 h at 32° C. and incubated overnight. After 8 days, TagRFP positive-cells were sorted by FACS. BCL2 expression was monitored by immunoblotting using anti-Flag and anti-BCL2 antibodies.
Cellular viability was monitored with the cell viability assay (CellTiter-Glo®) on KMS-12-PE WT and G101V cell lines. The CellTiter-Glo® (CTG) Luminescent Cell Viability Assay (from Promega) is a homogeneous method to determine the number of viable cells in culture based on quantitation of the ATP present, which signals the presence of metabolically active cells.
Dose response of compounds are performed with 10 mM stock solutions (DMSO), 11-points curve, in a 384-well compound plate. The assay plate is prepared by stamping 40 nL from compound dilution plate of all different concentrations (e.g. 10 mM to have final […] assay test) into a cell culture microplate, using Echo acoustic liquid handling (Labcyte, Beckman). 40 μl of cell solution is added and cells are incubated with compounds for 48 h at 37° C., 5% CO2. CTG was added to the cells (according to the manufacturer instructions) and luminescence intensity was recorded using the Pherastar plate reader (BMG).
This assay provides in vitro cellular potency of the tested Bcl-2 inhibitors, measuring the C50, defined as the concentration needed to reach 50% of the cellular viability.

BCLXL WT = BCLXL WT (Homo sapiens (Human), UniProt Q07817); experiment: TR-FRET competitive binding assay, BCLXL WT; conditions: for Ki: BCLXL WT, Ki determined from IC50, read-out: TR_FRET EKI BclxL; for TR_FRET EKI BCLxL/WT selectivty ratio: ratio Ki BCLxL / Ki BCL2 WT
Outline: as §1

BCL2 D103Y = BCL2 D103Y (Homo sapiens, UniProt P10415, D103Y); experiment: TR-FRET competitive binding assay, BCL2 D103Y; conditions: Ki determined from IC50, read-out: TR_FRET EKI_Bcl2 D103Y
Outline: as §1

BCL2 WT = BCL2 WT (Homo sapiens (Human), UniProt P10415); experiment: TR-FRET competitive binding assay, BCL2 WT; conditions: Ki determined from IC50, read-out: TR_FRET EKI_Bcl2 WT
Outline: as §1

Chain of BCLXL WT (Q07817 other isoform, or with tags, fused parts or gaps): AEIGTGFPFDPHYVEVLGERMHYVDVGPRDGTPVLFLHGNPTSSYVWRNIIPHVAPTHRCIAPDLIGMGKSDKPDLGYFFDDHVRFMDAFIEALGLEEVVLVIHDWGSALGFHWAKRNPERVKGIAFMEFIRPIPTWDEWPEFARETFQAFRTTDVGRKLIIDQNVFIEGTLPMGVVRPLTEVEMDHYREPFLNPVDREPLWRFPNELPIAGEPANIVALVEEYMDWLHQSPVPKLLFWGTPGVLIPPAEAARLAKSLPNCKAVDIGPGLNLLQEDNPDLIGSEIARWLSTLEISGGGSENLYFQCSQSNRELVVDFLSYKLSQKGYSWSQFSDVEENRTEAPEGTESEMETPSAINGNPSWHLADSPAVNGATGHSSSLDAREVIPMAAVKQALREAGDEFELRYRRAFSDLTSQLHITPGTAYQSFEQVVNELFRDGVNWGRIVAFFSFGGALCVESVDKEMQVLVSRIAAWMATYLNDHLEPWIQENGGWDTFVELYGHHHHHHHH

| SMILES | IC50 (KMS-12-PE Bcl-2 WT; Homo sapiens, KMS-12-PE) [µM] | Ki (BCL2 G101V [1]) [nM] | TR_FRET EKI G101V/WT selectivty ratio (BCL2 G101V [2]) | Ratio (G101V/WT) (KMS-12-PE Bcl-2 G101V) | IC50 (KMS-12-PE Bcl-2 G101V; Homo sapiens, KMS-12-PE) [µM] | Ki (BCLXL WT) [nM] | TR_FRET EKI BCLxL/WT selectivty ratio (BCLXL WT) | Ki (BCL2 D103Y) [nM] | Ki (BCL2 WT) [nM] | IC50 (KMS-12-PE Bcl-2 WT) [µM] | IC50 (KMS-12-PE Bcl-2 G101V) [µM] |
| --- | --- | --- | --- | --- | --- | --- | --- | --- | --- | --- | --- |
| Cc1c(N(C(=O)c2cc(-c3cc4c(cc3C(=O)N3Cc5ccccc5C[C@H]3C)CN(C(=O)Cc3ccc([C@H]5C[C@@H]5N5CCOCC5)cc3F)CC4)n(C)c2C)c2ccc(O)cc2)cc(C#N)n1C (single isomer, unassigned) [Example 70, N-(5-cyano-1,2-dimethyl-pyrrol-3-yl)-5-[2-[2-[2-fluoro-4-[(1S,2R) or (1R,2S)-2-morpholinocyclopropyl]phenyl]acetyl]-7-[(3R)-3-methyl-3,4-dihydro-1H-isoquinoline-2-carbonyl]-3,4-dihydro-1H-isoquinolin-6-yl]-N-(4-hydroxyphenyl)-1,2-dimethyl-pyrrole-3-carboxamide] | 0.0076 | 0.9 | 8.4 | 8.32 | 0.0629 | 2.3 | 20.9 | 0.29 | 0.11 |  |  |
| Cc1c(N(C(=O)c2cc(-c3cc4c(cc3C(=O)N3Cc5ccccc5C[C@H]3C)CN(C(=O)Cc3ccc(OCCN5CCOC(C)C5)cc3F)CC4)n(C)c2C)c2ccc(O)cc2)cc(C#N)n1C (single isomer, unassigned) [Example 75, N-(5-cyano-1,2-dimethyl-1H-pyrrol-3-yl)-5-[2-(2-{2-fluoro-4-[2-((2S or R)-2-methylmorpholin-4-yl)ethoxy]phenyl}acetyl)-7-[(3R)-3-methyl-1,2,3,4-tetrahydroisoquinoline-2-carbonyl]-1,2,3,4-tetrahydroisoquinolin-6-yl]-N-(4-hydroxyphenyl)-1,2-dimethyl-1H-pyrrole-3-carboxamide] | 0.0037 | 0.5 | 3.7 | 3.93 | 0.0147 | 1.4 | 10.8 | 0.28 | 0.13 |  |  |
| Cc1c(C(=O)N(c2ccc(O)cc2)c2cc(C#N)n(CC3CCOC3)c2C)cc(-c2cc3c(cc2C(=O)N2Cc4ccccc4C[C@H]2C)CN(C(=O)Cc2ccc(OCCN4CCOCC4)cc2F)CC3)n1C (single isomer, unassigned) [Example 84, N-[5-cyano-2-methyl-1-((3S or R)-tetrahydrofuran-3-ylmethyl)pyrrol-3-yl]-5-[2-[2-[2-fluoro-4-(2-morpholinoethoxy)phenyl]acetyl]-7-[(3R)-3-methyl-3,4-dihydro-1H-isoquinoline-2-carbonyl]-3,4-dihydro-1H-isoquinolin-6-yl]-N-(4-hydroxyphenyl)-1,2-dimethyl-pyrrole-3-carboxamide] | 0.0073 | 1 | 5.9 | 4.83 | 0.0353 | 1.8 | 11.3 | 0.43 | 0.16 |  |  |
| Cc1c(N(C(=O)c2cc(-c3cc4c(cc3C(=O)N3Cc5ccccc5C[C@H]3CN3CCCCC3)CN(C(=O)Cc3ccc(OCC(C)N5CCOCC5)cc3)CC4)n(C)c2C)c2ccc(O)cc2)cc(C#N)n1C (single isomer, unassigned) [Example 128, N-(5-cyano-1,2-dimethyl-1H-pyrrol-3-yl)-N-(4-hydroxyphenyl)-1,2-dimethyl-5-[2-(2-{4-[(2R or S)-2-(morpholin-4-yl)propoxy]phenyl}acetyl)-7-[(3S)-3-[(piperidin-1-yl)methyl]-1,2,3,4-tetrahydroisoquinoline-2-carbonyl]-1,2,3,4-tetrahydroisoquinolin-6-yl]-1H-pyrrole-3-carboxamide] |  | 0.4 | 6.9 | 5.95 |  | 5.4 | 93.1 | 0.21 | 0.06 | 0.0103 | 0.0613 |
